# “Also recorded” adds a separate entry of the source.
# Assays:
# IκBα = assay: TNF-induced degradation of IκBα in HUVEC (Western blot); type: cell-based; conditions: Homo sapiens, 20 μmol/l, 30 min pre-treatment, TNF 10 min
# Experimental: FIG. 17 is a representation showing (A) the effect of MP3 (β-oxa 23:4n-6) and DHA on TNF-induced degradation of IκBα in HUVEC. Cells were pre-treated with the fatty acids (20 μmol/l) for 30 min and then stimulated with TNF (125 U/ml) for 10 min. After cell lysis the proteins were analyzed by Western blots using anti-IκBα antibodies. (B) The effects of β-oxa-23:4n-6 on TNF-induced activation of transcriptional factor, NFκB in HUVEC. Cells were pre-treated with β-oxa-23:4n-6 (20 μmol/l) for 30 min and then stimulated with TNF for 2 hr. After cell lysis, nuclear fractions were prepared, nuclear proteins separated by SDS PAGE (12% w/v gel), transferred to nitrocellulose and probed with an anti-NFκB p65 antibody (Santa Cruz). […] (C) The effect of β-oxa 23:4n-6 on TNF-stimulated activation of IKK. Cells were pre-treated with β-oxa 23:4n-6 (20 μmol/l) for 30 min and then stimulated with TNF for 5 min. After cell lysis IKK was immunoprecipitated with anti-IKKα antibody and kinase activity determined. […]
# Proteins (50 μg) were separated by SDS PAGE (12% w/v gel), transferred to nitrocellulose and probed with an anti-NFκB p65 or anti-IκBα antibody (Santa Cruz Biotech, Santa Cruz, Calif.). Immunocomplexes were detected by enhanced chemiluminescence (Hii et al, 1998 supra).
# [1] = Delayed type hypersensitivity (DTH) to sheep erythrocytes; type: in vivo, BALB/c mice; conditions: 10 mg/kg intraperitoneally prior to antigen challenge
# Experimental: FIG. 14 is a representation showing (A) effect of MP3 on in vivo inflammatory response measured as delayed type hypersensitivity (DTH) to sheep erythrocytes and LPS-induced influx of neutrophils and mononuclear cells in the peritoneal cavity in BALB/c mice. In the DTH experiments mice were injected with sheep erythrocytes subcutaneously, challenged with the antigen in the hind foot pad 6 days later and the amount of foot pad swelling measured 48 hr later. One hour prior to challenge mice were given 10 mg/kg body weight of β-oxa fatty acid in 7% w/v, DMSO as vehicle intraperitoneally. […] The data, expressed as % of control, are presented as mean±SEM of 10 and 5 mice for DTH and peritoneal inflammation, respectively. […] The data, expressed as % of control, are presented as mean±SEM of ten mice per group and is representative of two experimental runs. […]
# Effect of MP3 (β-oxa-23:4n-6) on the in vivo inflammatory response was measured as a delayed type hypersensitivity (DTH) reaction and LPS-induced influx of neutrophils and mononuclear cells in the peritoneal cavity in BALB/c mice. For DTH experiments, mice were injected subcutaneously with 100 μl of 10% hematocrit sheep erythrocytes, challenged with the antigen (25 μl of 40%) in the hind foot pad 6 days later and the degree of foot pad swelling measured 48 hr later (Ferrante et al, Clin. & Exp. Immunol. 38:70-76, 1979). […]
# neutrophil NADPH oxidase = assay: Neutrophil respiratory burst (NADPH oxidase activation, chemiluminescence); type: cell-based, human; conditions: human neutrophils, up to 30 μmol/l
# Experimental: The structure of PT2 is shown in (c) above. In this screening assay, neutrophils were prepared from the blood of healthy volunteers. Freshly collected blood was layered onto a Hypaque-Ficoll medium of density 1.114 and centrifuged at 400 g for 30 mins at room temperature. After centrifugation, the leukocytes resolved into two distinct bands, with neutrophils being present in the second band (Ferrante and Thong, J. Immun. Methods 48:81-85, 1982).
# Activation of the neutrophil NADPH oxidase was measured by lucigenin-dependent chemiluminescence following a 10 min incubation of PT2 (20 μM, final concentration) with 1×10^6 neutrophils from different donors (Power et al, J. Immunol. 159:2952-2959, 1997). Arachidonic acid (20:4, n-6) was used as a positive stimulator of the oxidase
# Neutrophil respiratory burst was determined as previously described (Li et al, J. Clin. Invest. 97:1605-1609, 1996).
# [2] = Tolerability of intravenous MP3; type: in vivo, mice; conditions: 50 mg/kg intravenously, 4 days
# Source text: In accordance with the present invention, a novel engineered polyunsaturated fatty acid, β-oxa-23:4n-6 (MP3) (FIG. 5) is identified which has the hall-marks of a new class of pharmaceuticals based on polyunsaturated fatty acids and which can be used to prevent and/or treat cardiovascular disease. […] The focus of this embodiment of the subject invention is, therefore, the efficacy of MP3 at suppressing adhesion molecule expression in vivo and the development of atherosclerosis.
compound,measurement,setting,value
"CCCCC/C=C\C/C=C\C/C=C\C/C=C\CCCCOCC(=O)O [MP3, β-oxa-23:4n-6]",inhibition at 20 µM,IκBα,> 92%
same,Delayed type hypersensitivity reaction (foot pad swelling),[1],inhibited in ability to manifest a delayed type hypersensitivity reaction
same,Stimulation of the neutrophil respiratory burst (chemiluminescence response),neutrophil NADPH oxidase,relatively poor at stimulating this response; also recorded: failed to cause any significant respiratory burst
same,Observable signs of distress,[2],did not cause any observable signs of distress
